Results on two compounds are retold here after patent US10844411B2, “Inhibitors of sterol metabolism for their use to accumulate triglycerides in microalgae, and methods thereof” (Commissariat A L'energie Atomique Et Aux Energies …, priority 2014, dated 2020).

In the experiment the test system is Nannochloropsis gaditana. Description: Nile Red staining of oil accumulation in Nannochloropsis gaditana incubated with inhibitors of sterol metabolism. The class given is cell-based. Particulars: ESAW 1N1P and ESAW 10N10P media; time course at least 7 days; FIGS. 5 and 6. How it is done: Experiments were performed in two different conditions of Nannochloropsis gaditana: cells were either cultured in ESAW containing 47 mg·L^−1 NaNO3 and 3 mg·L^−1 NaH2PO4 (medium 1N1P), or 470 mg/L NaNO3 and 30 mg·L^−1NaH2PO4) (medium 10N10P). Cells in an exponential growth phase were collected via centrifugation at 3500 rpm for 10 minutes. The supernatant was discarded and the cells were resuspended in the same volume of ESAW medium (either 1N1P or 10N10P). The cultures were centrifuged again at 3500 rpm, for 10 minutes, and the supernatant was discarded. The pellet was resuspended in ESAW (either 1N1P or 10N10P) to obtain a concentration of 2×10^6 cells/mL. […]
Each day, an aliquot was taken from each flask in order to perform a Nile Red stain and cell counts. […] In order to detect any background noise, fluorescence was measured at excitation and emission of 530 nm and 580 nm, respectively. […] After 20 minutes of incubation, Nile Red fluorescence was measured at excitation and emission of 530 nm and 580 nm, respectively.
Nile Red Fluorescence was normalized by calculating the relative fluorescence units per million cells. Results were expressed as a percentage of Nile Red fluorescence of Nannochloropsis gaditana cultured in complete medium (either ESAW (10N10P) or ESAW (1N1P)).

For the compound `CN(Cc1ccc(C(C)(C)C)cc1)Cc1cccc2ccccc12` [Butenafine], the “accumulation of oil (Nile Red fluorescence per million cells)” value was “trigger the accumulation of oil”. Turning to `C#C[C@]1(O)CC[C@H]2[C@@H]3CCc4cc(O)ccc4[C@H]3CC[C@@]21C` [Ethinylestradiol], the “accumulation of oil (Nile Red fluorescence per million cells)” value is “trigger the accumulation of oil”.
